Test results published in PubChem BioAssay (NCI).
“And” between values parts separate entries of the source, which are not always exact repeats. Equal entries are not always repeated.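 In this assay, cells in 96-well plates receive the compound at five concentrations for 48 hours. Endpoints are linearly interpolated between the surrounding concentrations. GI50 is the concentration that inhibits growth by half. TGI: total growth inhibition.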

Legend:
Test in all cases: NCI tumour cell line growth inhibition, 48 h
MDA-MB-231 breast = tested on: MDA-MB-231 breast
KM20L2 colon = tested on: KM20L2 colon
LXFL 529 NSCLC = tested on: LXFL 529 NSCLC
DMS 273 small cell lung = tested on: DMS 273 small cell lung
RXF-631 renal = tested on: RXF-631 renal
MDA-N = tested on: MDA-N
P388 leukemia = tested on: P388 leukemia
P388/ADR leukemia = tested on: P388/ADR leukemia
SN12K1 renal = tested on: SN12K1 renal

SMILES	GI50 (MDA-MB-231 breast)	TGI (MDA-MB-231 breast)	TGI (KM20L2 colon)	TGI (LXFL 529 NSCLC)	TGI (DMS 273 small cell lung)	TGI (RXF-631 renal)	further results
Nc1ccc(-c2ccc(-c3nc4ccccc4[nH]3)cc2)cc1	29.6 µM	> 100 µM					
N/C(=N\C(=S)N1CCCCC1)N1CCCCC1			> 100 µM	> 100 µM	> 100 µM		
O=C1C=C(Br)C(=O)C(Br)=C1			> 100 µM	> 100 µM	> 100 µM	> 100 µM	
O=C1C(Nc2ccccn2)=C(I)C(=O)c2ncccc21	1.53 µM	4.86 µM					
CC(=O)N1c2ccccc2C23CCN4CC5=CCOC(O)C(C5CC42)C13 (configuration not stated)		> 100 µM					TGI (MDA-N): > 100 µM
COc1cc(C2C(C(=O)O)=C(C)Oc3cc4c(cc32)OCO4)cc(OC)c1OC (configuration not stated)			> 100 µM		> 100 µM	> 100 µM	
CCCCCN(CCCCC)C(=O)[C@@H](CCC(=O)OCc1ccccc1)NC(=O)c1cc2ccccc2[nH]1			> 100 µM	> 100 µM	> 100 µM	> 100 µM	
COC(=O)C(C(=O)C(=O)Nc1ccccc1OC)c1csc(-n2nc(-c3ccccc3)cc2-c2ccccc2)n1 (configuration not stated)			> 100 µM	> 100 µM	> 100 µM	> 100 µM	
CC/C(=C(\c1ccc(O)cc1)c1ccc(OCCNC)cc1)c1ccccc1	1.89 µM and 1.65 µM and 1.61 µM	4.31 µM and 3.52 µM and 3.22 µM					
CC(NC1CCC[C@H]1O)c1ccccc1 (mixture of isomers)			> 100 µM		> 100 µM		
CC(=O)O[C@H]1CCC2[C@@H]3CCC4C(=O)c5oncc5C[C@]4(C)C3CC[C@@]21C (some centres not stated)			> 100 µM	> 100 µM	> 100 µM		
C[C@]12CC[C@H]3[C@@H](C[C@@H]4SC(Nc5cccc(F)c5)=N[C@@]45CC(=O)CC[C@]35C)[C@@H]1CCC2=O	2.11 µM	4.59 µM					
O=C(C#Cc1c[nH]c(=O)[nH]c1=O)c1ccccc1					28.9 µM	27.4 µM	
O=C(N/N=C/c1cc2ccccc2c2ccccc12)c1cc(O)c(O)c(O)c1	2.7 µM	10.1 µM					
O=S(=O)(Nc1ccc(Cl)c(C(F)(F)F)c1)c1ccc(-c2cnc(C3CC3)o2)cc1	1.23 µM	3.64 µM					
Cc1oc2c(c1C(=O)c1ccccc1)C(=O)c1ccccc1C2=O		7.07 µM	31.9 µM	3.1 µM	26.7 µM	> 100 µM	TGI (MDA-N): 3.9 µM
CCOC(=O)c1c(C)c2c(n1C)CSc1cc(S(=O)(=O)c3ccccc3)c(=O)[nH]c1-2	24.5 µM	> 100 µM					
CN(C)CC1(C)CC/C(=C\c2ccc3c(c2)OCO3)C1=O (configuration not stated)			> 100 µM	> 100 µM	> 100 µM		
O=C1CCC(=O)c2cc(Br)ccc2N1			> 100 µM	> 100 µM	> 100 µM	> 100 µM	

SMILES	GI50 (MDA-MB-231 breast)	TGI (MDA-MB-231 breast)	TGI (KM20L2 colon)	TGI (LXFL 529 NSCLC)	TGI (DMS 273 small cell lung)	TGI (RXF-631 renal)	further results
Nc1nc(N)c(-c2ccccc2)c(C(=O)Nc2ccc(Cl)c(Cl)c2)n1			> 100 µM	> 100 µM	> 100 µM	> 100 µM	
COC(=O)C1CCc2c(OC)ccc(OC)c2C1=O (configuration not stated)			> 100 µM	> 100 µM	> 100 µM		
CC1=CC(C)C(O)C(C)/C=C/C(O)C/C=C(/C)C(=O)CC(O)C(C)\C=C/C=C/C=C\C(=O)NC2=C(O)c3cc(C)c(O)c(c3C(=O)C2=O)C1=O (configuration not stated)		> 100 µM					TGI (MDA-N): > 100 µM
COC(=O)c1c2c(c(C)[n+]([O-])c1C)C(=O)C(NCc1ccc(F)c(Cl)c1)=CC2=O	1.76 µM	5.6 µM					
C=C(C)C1CC[C@]2(C(=O)O)CCC3(C)[C@H](CCC4[C@@]5(C)CC[C@H](OC6OC(CO)C(O)C6OC6OC(C)C(O)C(O)C6O)[C@@](C)(CO)C5CC[C@]43C)C12 (some centres not stated)			> 100 µM	> 100 µM	> 100 µM	> 100 µM	
CS(=O)(=O)c1ccc(C(F)(F)F)cc1NC(=O)Nc1cnc(Oc2ccc(-c3cc(Cl)cnc3N)cc2)nc1	1.72 µM	3.79 µM					
O=C1Nc2ccccc2SC1C1SC(=S)N(Cc2ccccc2)C1=O (configuration not stated)	3.65 µM	12.9 µM					
O=C(Nc1ccc(-n2cc(-c3ccncc3)c(-c3ccc(Cl)c(O)c3)n2)cc1)c1cc(Cl)cc(Cl)c1	0.802 µM	4.01 µM					
Cc1ccc(NC2=C(Cl)C(=O)c3nc(C)ccc3C2=O)cc1	1.41 µM	2.96 µM					
O=C(Oc1ccc([N+](=O)[O-])cc1)N1CCC(C(O)(c2ccc3c(c2)OCO3)c2ccc3c(c2)OCO3)CC1	> 100 µM	> 100 µM					
COCCN1C2=CCCCC2=Nc2c(N)nc(N)nc21			> 100 µM	> 100 µM	> 100 µM	> 100 µM	
C#C[C@]1(O)CC[C@H]2[C@@H]3CC=C4c5nc(Nc6ccc(OC)cc6OC)sc5CC[C@]4(C)[C@H]3CC[C@@]21C	1.26 µM	5.34 µM					
CNC(=O)OCc1nc(S(C)=O)n(C)c1COC(=O)NC (configuration not stated)			> 100 µM	> 51.8 µM	> 100 µM	> 100 µM	TGI (P388 leukemia): > 100 µM; TGI (P388/ADR leukemia): > 100 µM; TGI (SN12K1 renal): > 100 µM
C=CC(=O)Nc1cc2c(Nc3ccc(OCc4ccccn4)c(Cl)c3)ncnc2cc1OCCN1CCOCC1	2.17 µM	34.2 µM					
Cc1cccc(NC(=O)CC2C(=O)Nc3ccccc3S2(=O)=O)c1C (configuration not stated)			> 100 µM	> 100 µM	> 100 µM		
N#Cc1ccc(-n2cnc(NC(=O)[C@H]3CCN(C#N)C3)c2)cc1	1.91 µM	> 91.6 µM					
CC(=O)Nc1ccc(/C=c2\sc3nnc(/C=C/c4ccccc4)n3c2=O)cc1			> 50 µM	> 50 µM	> 50 µM	> 50 µM	
O=C(O)[C@@H]1C[C@@H](O)CN1		> 100 µM					TGI (MDA-N): > 100 µM
C/C=C(/C)C(=O)OC1C=C(CO)C(=O)C(OC(=O)/C(C)=C\C)C1C(C)C (configuration not stated)	0.751 µM	1.9 µM					
